From patent US20240327429A1, “[1,3]Thiazolo[4,5-d]-pyrimidon-7-ones as inhibitors of NOX4” (Boehringer Ingelheim International GmbH, priority 2023, published 2024)

What was measured:
NOX2 = biological target: T1, NOX2 (Homo sapiens, UniProt P04839); experiment: NOX2 inhibition assay (L-012), human blood-derived granulocytes; format: cell-based; details: fMLP/PMA stimulated
T1 construct: endogenous in cells; host or cells: freshly isolated human blood-derived granulocytes
T1 sequence (P04839 2-570 limits assumed): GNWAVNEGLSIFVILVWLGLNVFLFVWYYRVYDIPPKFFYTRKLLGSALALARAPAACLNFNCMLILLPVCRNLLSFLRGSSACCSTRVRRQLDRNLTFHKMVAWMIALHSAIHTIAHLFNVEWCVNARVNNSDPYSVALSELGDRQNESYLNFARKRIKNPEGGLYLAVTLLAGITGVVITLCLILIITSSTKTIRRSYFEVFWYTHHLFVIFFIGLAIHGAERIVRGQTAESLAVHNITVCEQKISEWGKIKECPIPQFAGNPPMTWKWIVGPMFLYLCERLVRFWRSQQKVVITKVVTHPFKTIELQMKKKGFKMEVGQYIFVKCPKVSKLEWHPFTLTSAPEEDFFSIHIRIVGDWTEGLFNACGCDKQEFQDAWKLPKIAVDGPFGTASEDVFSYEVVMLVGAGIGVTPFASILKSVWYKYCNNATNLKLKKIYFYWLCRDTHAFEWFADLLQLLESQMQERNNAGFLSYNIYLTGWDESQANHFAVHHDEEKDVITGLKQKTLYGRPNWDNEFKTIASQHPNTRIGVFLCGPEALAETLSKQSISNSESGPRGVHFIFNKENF
T1 sequence (P13498 2-195 partner limits assumed): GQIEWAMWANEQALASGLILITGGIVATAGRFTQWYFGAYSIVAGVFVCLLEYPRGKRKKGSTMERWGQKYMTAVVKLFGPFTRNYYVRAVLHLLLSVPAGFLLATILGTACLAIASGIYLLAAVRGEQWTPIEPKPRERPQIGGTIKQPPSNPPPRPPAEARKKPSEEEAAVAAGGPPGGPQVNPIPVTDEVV
Experimental: Evaluation of the NOX4 inhibitors on NOX2 activity is assessed in human blood-derived granulocytes.
Afterwards, freshly isolated granulocytes are added to the wells containing the compounds in assay buffer and incubated for 1 h at 37° C. Next, a solution of Nformylmethionine-leucyl-phenylalanine (fMLP; 730 nM), phorbol myristate acetate (PMA, 100 nM) (stimuli of ROS production) and L-012 (200 μM, ROS indicator) is added to the wells and the cells are incubated for additional 30 mins at 37° C. Afterwards luminescence is measured in a SpectraMax M5 microplate reader.

human hepatocytes = experiment: Evaluation of hepatocyte clearance (metabolic stability); format: in vitro ADME; details: 1 μM test compound, 5% human serum, Table 3
In short: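 Cryopreserved human hepatocytes (typically 1 Mio cells/mL) in supplemented DMEM with 5% human serum incubated with 1 μM compound (0.05% DMSO) at 37° C, sampled to 6 hours. Parent decline by HPLC-MS/MS; CLint = Dose/AUC, scaled to in vivo blood CL via well-stirred model.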

human NOX5 (hNOX5) = biological target: T2, human NOX5 (hNOX5) (Homo sapiens, UniProt Q96PH1); experiment: NOX5 inhibition assay (L-012), HEK293 cells stably overexpressing human NOX5; format: cell-based; details: HEK293-hNOX5, PMA stimulated
T2 construct: expressed in transfected cells; host or cells: HEK293
T2 sequence (Q96PH1 1-765): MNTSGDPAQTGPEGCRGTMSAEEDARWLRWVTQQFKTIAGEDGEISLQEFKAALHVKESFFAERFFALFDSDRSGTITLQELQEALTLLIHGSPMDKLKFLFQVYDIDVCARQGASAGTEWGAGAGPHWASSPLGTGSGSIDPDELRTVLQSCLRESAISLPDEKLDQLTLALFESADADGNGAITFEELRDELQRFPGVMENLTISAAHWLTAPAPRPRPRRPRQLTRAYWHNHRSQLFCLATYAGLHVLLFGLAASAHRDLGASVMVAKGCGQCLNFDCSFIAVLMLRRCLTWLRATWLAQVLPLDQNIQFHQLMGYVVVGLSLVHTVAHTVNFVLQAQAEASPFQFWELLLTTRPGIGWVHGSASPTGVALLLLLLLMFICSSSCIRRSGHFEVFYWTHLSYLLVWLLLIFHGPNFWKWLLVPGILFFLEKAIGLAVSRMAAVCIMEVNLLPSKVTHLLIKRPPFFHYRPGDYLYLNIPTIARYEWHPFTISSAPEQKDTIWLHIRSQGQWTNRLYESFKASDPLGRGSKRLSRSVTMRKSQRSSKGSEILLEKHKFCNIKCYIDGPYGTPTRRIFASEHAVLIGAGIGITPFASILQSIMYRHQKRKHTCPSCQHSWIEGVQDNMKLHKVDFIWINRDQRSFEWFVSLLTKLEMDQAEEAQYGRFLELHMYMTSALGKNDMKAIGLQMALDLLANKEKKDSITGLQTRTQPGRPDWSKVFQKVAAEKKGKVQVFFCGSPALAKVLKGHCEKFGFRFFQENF
Experimental: The synthetic gene hNOX5 (Accession: Q96PH1) is cloned into pcDNA3.1_Zeo. […] The final construct is verified by sequencing.
Evaluation of the NOX4 inhibitors on NOX5 activity is assessed in HEK293 cells stably overexpressing human NOX5 (hNOX5).
Cells are seeded in 384 well plates over-night. […] Cells are then stimulated with PMA at 0.1 μM to induce NOX5-dependent ROS production. […] Luminescence is measured with an PHERAstar multimode reader.

IC50 (NOX2) [µM] | Qh [%] (human hepatocytes) | IC50 (human NOX5 (hNOX5)) [µM] | SMILES
> 100 | 19 | 60.2 | O=c1c2scnc2nc(SCc2c(F)cc(F)cc2F)n1-c1ccc(O)nc1F [Example 50, 6-(2-Fluoro-6-hydroxypyridin-3-yl)-5-((2,4,6-trifluorobenzyl)thio)thiazolo[4,5-d]-pyrimidin-7(6H)-one]
> 100 | 10 | 59.4 | O=c1c2scnc2nc(SCc2c(F)cc(F)cc2F)n1-c1cc(F)c(O)nc1F [Example 51, 6-(2,5-Difluoro-6-hydroxypyridin-3-yl)-5-((2,4,6-trifluorobenzyl)thio)thiazolo[4,5-d]-pyrimidin-7(6H)-one]
> 100 | 20 | 38.9 | O=c1c2scnc2nc(SCc2c(F)cc(F)cc2F)n1-c1cnc(O)c(F)c1F [Example 52, 6-(4,5-Difluoro-6-hydroxypyridin-3-yl)-5-((2,4,6-trifluorobenzyl)thio)thiazolo[4,5-d]-pyrimidin-7(6H)-one]
> 100 | 13 | > 100 | O=c1c2scnc2nc(SCc2ccc(Cl)cc2F)n1-c1cnc(O)nc1 [Example 53, 5-((4-Chloro-2-fluorobenzyl)thio)-6-(2-hydroxypyrimidin-5-yl)thiazolo[4,5-d]pyrimidin-7(6H)-one]
> 100 | 33 | 47.6 | Cc1cc(Cl)ccc1CSc1nc2ncsc2c(=O)n1-c1cnc(O)nc1 [Example 54]
> 100 | 15 | 85.8 | Cc1cc(F)cc(C)c1CSc1nc2ncsc2c(=O)n1-c1cnc(O)nc1 [Example 55]
> 100 | <4 | > 100 | O=c1c2scnc2nc(SCc2ccc(Cl)cc2)n1-c1cnc(O)nc1 [Example 56]
> 100 | 7 | > 100 | O=c1c2scnc2nc(SCc2ccc(C(F)(F)F)cc2F)n1-c1cnc(O)nc1 [Example 57]
> 100 | 19 | > 100 | Cc1cc(F)ccc1CSc1nc2ncsc2c(=O)n1-c1cnc(O)nc1 [Example 58]
> 100 | <4 | > 100 | O=c1c2scnc2nc(SCc2c(F)cc(F)cc2F)n1-c1cnc(O)nc1 [Example 59]
> 100 | 8 | > 100 | O=c1c2scnc2nc(SCc2ccc(C(F)(F)F)cc2)n1-c1cnc(O)nc1 [Example 60]
> 100 | 55 | > 100 | O=c1c2scnc2nc(SCc2ccc(Cl)cc2F)n1-c1ccc(O)nn1 [Example 61, 5-((4-Chloro-2-fluorobenzyl)thio)-6-(6-hydroxypyridazin-3-yl)thiazolo[4,5-d]pyrimidin-7(6H)-one]
> 100 | 58 | > 100 | Cc1cc(Cl)ccc1CSc1nc2ncsc2c(=O)n1-c1ccc(O)nn1 [Example 62]
> 100 | 47 | > 100 | O=c1c2scnc2nc(SCc2ccc(Cl)cc2)n1-c1ccc(O)nn1 [Example 64]
> 100 | 50 | > 100 | O=c1c2scnc2nc(SCc2ccc(C(F)(F)F)cc2F)n1-c1ccc(O)nn1 [Example 65]
> 100 | 40 | 74.8 | O=c1c2scnc2nc(SCc2ccc(C(F)(F)F)cc2)n1-c1ccc(O)nn1 [Example 66]
> 30 | 37 | > 100 | O=c1c2scnc2nc(SCc2c(F)cc(F)cc2F)n1-c1ccc(O)nn1 [Example 67]
> 100 | <4 | > 100 | O=c1c2scnc2nc(SCc2c(F)cc(F)cc2F)n1-c1cnc(O)cn1 [Example 69, 6-(5-Hydroxypyrazin-2-yl)-5-((2,4,6-trifluorobenzyl)thio)thiazolo[4,5-d]pyrimidin-7(6H)-one]
